In patent US10494402B2, “Peptides that stimulate subcutaneous adipogenesis” (The Regents of the University of California, priority 2012, dated 2019):
Entries after “also recorded” stand apart in the source; their conditions may differ.

Tests used:
Type in all cases: cell-based
[1] = test system: human subcutaneous pre-adipocytes; assay: Differentiation of human subcutaneous pre-adipocytes; conditions: for adipogenesis, Oil Red O staining, absence of both insulin and PPARγ agonist: FIGS. 23, 24; for adipogenesis, extracted Oil Red O: experimental cocktail lacked PPARγ agonist and insulin
From the text: As noted above, this adipogenic cocktail contained pantothenate, dexamethasone, isobutylmethylxanthine (IBMX), human insulin and a PPARγ agonist. For these experiments, the following conditions were used as negative controls: (1) Preadipocyte Medium only; (2) the adipogenic cocktail without PPARγ agonist (PPARγ-); and (3) the adipogenic cocktail without PPARγ agonist or human insulin.
The positive control for FIG. 21 was the complete adipogenic medium containing both the PPARγ agonist and insulin: The experimental cocktail contained the B peptide or the KSEVSK 6-mer, but lacked PPARγ agonist and insulin. Adipogenesis levels were quantified by measuring extracted Oil Red 0.
The following conditions were used as negative controls: (Ctr no-γ)=monolayers cultured in adipogenic cocktail but without PPARγ agonist, (Ctr no-γ, no-Ins)=monolayers cultured in adipogenic cocktail but without PPARγ agonist or human insulin. To test the adipogenic activity of the KSEVSK 6-mer and B peptides, the human pre-adipocytes were exposed to the above negative controls plus either the KSEVSK 6-mer or the B peptide at concentrations of 5 μg/ml and 20 μg/ml. Statistical analysis were performed compared to negative control. Data presented as mean±standard error (n=3)

[2] = test system: human adipose-derived stem cells (h-ADSCs); assay: Differentiation of human adipose-derived stem cells (h-ADSCs); conditions: for adipogenesis, absorbance of extracted Oil Red O: 5 μg/ml in adipogenic cocktail in the absence of insulin and PPARγ agonist, two weeks; for adipogenesis (micrographs) in the absence of PPARγ agonist / adipogenesis (micrographs) in the presence of PPARγ agonist: B peptide 5 μg/ml, 6-mer 5 μg/ml or 20 μg/ml
From the text: The Adipocyte Differentiation Medium contained DMEM/Ham's F-12 (1:1 v/v), HEPES pH 7.4, fetal bovine serum, biotin, penicillin, streptomcyin, amphotericin B, pantothenate, human insulin, dexamethasone, isobutylmethylxanthine (IBMX) and a PPARγ agonist. This positive stimulus was used as the positive control. […] The upper right panel and the lower left panel of FIG. 14 provide two different fields of view of the h-ASDCs exposed to the adipogenic cocktail at 4× magnification.
Monolayers that were maintained in Preadipocyte Medium only (ZenBio catalog no. PM-1, containing DMEM/Ham's F-12 (1:1 v/v), HEPES 7.4, fetal bovine serum, penicillin, streptomcyin, and amphotericin B) or monolayers that were exposed to the adipogenic cocktail without insulin and PPARγ agonist were both used as negative controls. […] The negative controls shown in FIG. 15 were exposed to Preadipocyte Medium only. […] The adipogenic peptides (peptide B and the KSEVSK 6-mer) were mixed into adipogenic cocktail that lacked the PPARγ agonist and/or insulin and used as the experimental condition.
To quantify the adipogenic activity of the KSEVSK 6-mer (SEQ ID NO: 3) and the B peptide (SEQ ID NO: 2), h-ADSCs were exposed to 5 μg/ml of these peptides in the adipogenic cocktail in the absence of insulin and PPARγ agonist). The experiment was terminated two weeks after the addition of adipogenic mixtures. At this time, photographs of monolayers were taken and the lipid droplet accumulation was quantified by measuring the absorbance of extracted Oil Red 0. […] The peptides stimulated adipogenesis to a similar extent when the PPARγ agonist alone or both the PPARγ agonist and insulin were deleted from the adipogenic cocktail (not shown).
In further studies using h-ADSCs, two different protocols were used. In the first of these protocols, h-ADSCs were exposed to the adipogenic cocktail plus the KSEVSK 6-mer (SEQ ID NO: 3) or B peptide (SEQ ID NO: 2) at concentrations of 5 μg/ml or 20 μg/ml. […] In the second of these protocols, h-ADSCs were exposed to adipogenic cocktail in which the PPARγ agonist was replaced with either the KSEVSK 6-mer or the B peptide at concentrations of 5 μg/ml or 20 μg/ml. […] Statistical analysis were performed compared to negative control. Data presented as mean±standard error (n=3).

[3] = test system: rat mesenchymal stem cells; assay: Adipogenesis Assay 2 (dexamethasone/insulin/indomethacin induction, then peptide; Oil Red O or BODIPY); conditions: Assay 2
Protocol: Reagents: The dexamethasone, insulin, and Oil Red O solutions were the same as described above for assay 1. Indomethacin Solution contained 10 mM indomethacin in methanol. The BODIPY 493/503 dye was used at a concentration of 4 μM.
Adipogenesis Maintenance Media was prepared as described above.
Adipogenesis Induction Media: To prepare 501 mL of Adipogenesis Induction Media, 50 μL of the 10 mM stock solution of dexamethasone, 500 μL of the 10 mg/ml stock solution of insulin, 5 ml of a 10 mM stock solution of indomethacin, and 5 mL of a 100× stock solution of penicillin and streptomycin were added to 490 mL of mesenchymal stem cell expansion media.
Pre-adipocyte stem cells, bone marrow mesenchymal stem cells and fibroblasts such as dermal reticular and papillary fibroblasts were propagated using standard tissue culture methods. Cells were trypsinized to remove cells from the substratum, the trypsin was neutralized, and cells were counted using a hemocytometer. Cells were resuspended at 60,000 cells/ml in low glucose DMEM containing 10% calf serum. 1 mL of cell suspension per well was plated in a 24-well plate, with several wells left empty for blank well staining.
Cells were incubated overnight and had reached confluency at this point. Approximately 1.8 ml of media was removed from each well and replaced with 2 ml Adipogenesis Induction Media. For negative control wells, expansion medium only was used at this step and for subsequent media changes. For all media changes, media was replaced as gently as possible to avoid disturbing the monolayer.
Media was removed and replaced with 2 ml of maintenance medium containing either RHAMM antagonist peptides (experimental group) or insulin (concentration as in the induction medium used as positive control). […]
Media was removed and BODIPY or Oil Red O staining was performed as described above for assay 1.
As described above in Example 1, two different adipogenesis assays were used herein to assess the adipogenic effects of the peptides in rat mesenchymal stem cells. Assay 1 is an assay that is typically used to promote transdifferentiation of fibroblasts into adipocytes, whereas Assay 2 is typically used to promote differentiation of multi-potential mesenchymal progenitor cells into adipocytes. Immortalized rat bone marrow mesenchymal stem cells were used for both assays. These cells contain cells of different lineages, including fibroblasts, pre-adipocytes, pre-chondrocytes and pre-osteoblasts. Thus, Assay 1 was used to promote transdifferentiation of the fibroblast lineages into adipocytes and Assay 2 was used to promote differentiation of the pre-adipocytes into adipocytes.
As described in Example 1 above, the priming stimulus for Assay 1 includes IBMX (3-isobutyl-1-methylxanthine) and dexamethasone, and then insulin as the final adipogenic stimulus. The priming stimulus for assay 2 includes IBMX, dexamethasone and indomethacin, and then insulin as the final adipogenic stimulus.

[4] = test system: human reticular fibroblasts (HRF); assay: Transdifferentiation of primary human dermal fibroblasts, reticular; conditions: 5 μg/ml, peptide replaced insulin
Protocol: The B peptide and the KSEVSK 6-mer were also tested for their adipogenic effect on primary human dermal fibroblasts from the upper (papillary) and lower (reticular) dermal layers. The primary human fibroblasts were obtained from dermatome sections of biopsies from human volunteers. Cells were cultured and exposed to adipogenic medium. In these experiments, the B peptide and the KSEVSK 6-mer replaced insulin as the adipogenic stimulus. The peptides were used at a concentration of 5 μg/ml. Adipogenesis was assessed by Oil Red O staining. […] White arrows show fat droplets.

Substance: KLKDENSQLKSEVSK [peptide B]
- adipogenesis, Oil Red O staining, absence of both insulin and PPARγ agonist [1]: stimulates adipogenesis
- adipogenesis, extracted Oil Red O [1]: significantly (p<0.05) increased adipogenesis above the negative control levels
- adipogenesis, absorbance of extracted Oil Red O [2]: strongly promoted adipogenesis compared to the negative control (p<0.05)
- adipogenesis (micrographs) in the absence of PPARγ agonist [2]: underwent adipogenesis
- adipogenesis (micrographs) in the presence of PPARγ agonist [2]: underwent adipogenesis
- Fold adipogenic induction vs. negative control [3]: 4.0
- Specific activity (activity/1000 daltons) [3]: 2.17 activity/1000 daltons
- transdifferentiation into adipocytes, Oil Red O staining ([4]; listed as B peptide): stimulated the transdifferentiation; also recorded: stimulated the trans-differentiation

Substance: KSEVSK [KSEVSK 6-mer]
- adipogenesis, Oil Red O staining, absence of PPARγ agonist ([1]; FIG. 22): stimulates adipogenesis
- adipogenesis, Oil Red O staining, absence of both insulin and PPARγ agonist [1]: stimulates adipogenesis
- adipogenesis, extracted Oil Red O [1]: significantly (p<0.05) increased adipogenesis above the negative control levels
- adipogenesis, absorbance of extracted Oil Red O [2]: strongly promoted adipogenesis compared to the negative control (p<0.05)
- adipogenesis (micrographs) in the absence of PPARγ agonist [2]: underwent adipogenesis
- adipogenesis (micrographs) in the presence of PPARγ agonist [2]: underwent adipogenesis
- adipogenesis (lipid droplets) compared with positive control ([2]; two weeks after initiation, peptide in cocktail lacking PPARγ agonist and/or insulin): more effective at promoting adipogenesis than the positive control
- Fold adipogenic induction vs. negative control [3]: 2.5
- Specific activity (activity/1000 daltons) [3]: 3.32 activity/1000 daltons
- transdifferentiation into adipocytes, Oil Red O staining [4]: stimulated the transdifferentiation
